Reference: article doi:10.1101/2021.10.22.465361v1 (biorxiv, 2021)

Molecular target: T1, FABP7 (Brain fatty acid binding protein) (Homo sapiens, UniProt O15540)
T1 sequence (O15540 2-132): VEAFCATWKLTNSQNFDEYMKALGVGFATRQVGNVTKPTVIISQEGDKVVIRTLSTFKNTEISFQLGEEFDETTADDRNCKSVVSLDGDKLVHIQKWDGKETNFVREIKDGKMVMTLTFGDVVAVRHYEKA
Test: microscale thermophoresis

Row | Kd [µM] | SMILES
1 | ~0.5 | CC/C=C\C/C=C\C/C=C\C/C=C\C/C=C\C/C=C\CCC(=O)O [DHA, docosahexaenoic acid]
2 | ~0.5 | CCCCCCCC/C=C\CCCCCCCC(=O)O [OA, oleic acid]
3 | ~0.5 | CCCCCCCCCCCCCCCCCC(=O)O [SA, stearic acid]
